The source of these data is US12378234B2, “Crystalline polymorphs of a 1-thiazol-2-yl-pyrazole-5-carboxylic acid derivative” (Bantam Pharmaceutical, LLC, priority 2019, dated 2025).

Holding throughout (assay type): physicochemical
The nature of data set [1]: Form stability on drying, checked by XRPD. To be noted: for form stability upon drying under ambient condition (XRPD): solids isolated from slurry; for change to the polymorph during drying (XRPD): wet solids vacuum-dried at 50° C. for 2 hours. As for the experimental part: Crystalline polymorph Form 1 (20 mg) was suspended in 0.2-0.9 mL of methyl tert-butyl ether (MTBE). The resulting slurry was stirred at room temperature for 4 days, after which the remaining solids were isolated and subjected to XRPD.
Crystalline polymorph Form 1 (20 mg) was suspended in 0.2-0.9 mL of tetrahydrofurane:H2O (1:9 v:v). The resulting slurry was stirred at room temperature for 4 days, after which the remaining solids were isolated and subjected to XRPD.
A solution of crystalline polymorph Form 1 (20 mg in 0.3 mL) was mixed with 0.3 mL a solution of KOH in ethyl acetate (1:1 molar ratio of KOH:Form 1), and then stirred for 2 to 5 days at room temperature. The solids were isolated and subjected to XRPD. The wet solids were also vacuum-dried at 50° C. for 2 hours, and then subjected to XRPD. […] This crystalline polymorph was also characterized by TGA, DSC, and PLM. […] Based on the results, Form 9 was considered to be a hydrate or a solvate.
X-Ray Powder Diffraction was obtained by standard techniques using Panalytical X'Pert3 Powder XRPD on a Si zero-background holder operating with a Cu Kα radiation source at 45 kV, 40 mA (Kα1 (Å): 1.540598, Kα2 (Å): 1.544426, Kα2/Kα1 intensity ratio: 0.50). The 2θ position was calibrated against Panalytical Si reference standard disc. The scanning parameters ranged from 3 to 40° 2θ (±0.0131°) and a continuous scan at a rate of about 0.04° 2θ/minute.

The nature of data set [2]: Slurry conversion (competitive) experiments for thermodynamic stability relationship. To be noted: for pH of solution: 2.5 mg in 1 mL of 4% dichloromethane. The procedure:
To determine the thermodynamic stability relationship between Form 1 and Form 5, slurry conversion experiments were conducted. Specifically, Form 1 sample was added to 1.0 mL H2O:acetone (9:1 v:v) or 0.8 mL of H2O:ethanol (3:1 v:v) at room temperature. After equilibrium for 1 hr, the suspensions were filtered to obtain a saturated solution Form 1. To each saturated solution of Form 1:Form 5 (1:1) was added. After stirring at room temperature for 2 or 3 days, the solids were isolated for XRPD analysis.
To determine the thermodynamic stability relationship between Form 11 and Form 12, slurry conversion experiments were conducted. Specifically, Form 12 (2.5 mg) was added to 1.0 mL of 4% dichloromethane at room temperature. After equilibrium for 1 hour, the suspensions were filtered to obtain a saturated solution Form 12. To the saturated solution of Form 11:Form 12 (1:1) was added. After stirring at room temperature for 30 minutes, the solids were isolated for XRPD analysis. […] The pH of Form 11 solution (2.5 mg in 1 mL of 4% dichloromethane) and Form 12 solution (2.5 mg in 1 mL of 4% dichloromethane) was measured to be 8.25 and 7.98, respectively.

A short description of data set [3]: Solubility of crystalline polymorph in biologically relevant media (water, SGF, FaSSIF, FeSSIF), HPLC of supernatant, pH, XRPD of remaining solids. The note with it: for solubility at 1 h / solubility at 4 h / solubility at 24 h: thermodynamic from solid, 37° C.; for pH: solubility test. As for the experimental part:
The solubility of crystalline polymorph Form 1 was tested in biologically relevant media: water, simulated gastric fluid (SGF), fasted state simulated intestinal fluid (FaSSIF) and fed state simulated intestinal fluid (FeSSIF). For example, the crystalline polymorph was suspended in the solvent with stirring at 400 rpm at 37° C. for 1 h, 4 h and 24 h followed by filtration. The supernatant concentration was measured by HPLC (Mobile phase A: 0.1% NH3 in H2O, Mobile phase B: acetonitrile; flow rate: 0.8 mL/min; injection volume: 5 μL). The remaining solids were tested by XRPD.
The solubility of crystalline polymorph Form 11 was tested in biologically relevant media: water, SGF, FaSSIF, and FeSSIF. For example, the crystalline polymorph was suspended in the solvent with stirring at 400 rpm at 37° C. for 1 h, 4 h and 24 h followed by filtration. The supernatant was measured by HPLC for concentration and the remaining solids were tested by XRPD.

For `Cc1nn(-c2nc(C3=CCC(C(F)(F)F)CC3)c(SC(C)C)s2)c(C(=O)O)c1-c1cccc(F)c1` (centres unmarked) [Form 2, 4-(3-fluorophenyl)-1-(5-(isopropylthio)-4-(4-(trifluoromethyl)cyclohex-1-en-1-yl)thiazol-2-yl)-3-methyl-1H-pyrazole-5-carboxylic acid], the “form stability upon drying under ambient condition (XRPD)” value in data set [1] is “metastable and partially converted to Form 1”.

As for `Cc1nn(-c2nc(C3=CCC(C(F)(F)F)CC3)c(SC(C)C)s2)c(C(=O)O)c1-c1cccc(F)c1` (centres unmarked) [Form 8, 4-(3-fluorophenyl)-1-(5-(isopropylthio)-4-(4-(trifluoromethyl)cyclohex-1-en-1-yl)thiazol-2-yl)-3-methyl-1H-pyrazole-5-carboxylic acid], the “form stability upon drying under ambient condition (XRPD)” value in data set [1] was “metastable and partially converted to Form 1”.

On to `Cc1nn(-c2nc(C3=CCC(C(F)(F)F)CC3)c(SC(C)C)s2)c(C(=O)[O-])c1-c1cccc(F)c1.[K+]` (centres unmarked) [Form 9, potassium 4-(3-fluorophenyl)-1-(5-(isopropylthio)-4-(4-(trifluoromethyl)cyclohex-1-en-1-yl)thiazol-2-yl)-3-methyl-1H-pyrazole-5-carboxylate], for which, in data set [1], the “change to the polymorph during drying (XRPD)” value (“change … (XRPD)” below) is given as “no change to the polymorph was observed”.

In the case of `Cc1nn(-c2nc(C3=CCC(C(F)(F)F)CC3)c(SC(C)C)s2)c(C(=O)[O-])c1-c1cccc(F)c1.[K+]` (centres unmarked) [Form 10, potassium 4-(3-fluorophenyl)-1-(5-(isopropylthio)-4-(4-(trifluoromethyl)cyclohex-1-en-1-yl)thiazol-2-yl)-3-methyl-1H-pyrazole-5-carboxylate], the “change … (XRPD)” value in data set [1] is listed as “no change to the polymorph was observed”.

In data set [2], `Cc1nn(-c2nc(C3=CCC(C(F)(F)F)CC3)c(SC(C)C)s2)c(C(=O)[O-])c1-c1cccc(F)c1.[Na+]` (centres unmarked) [Form 11, sodium 4-(3-fluorophenyl)-1-(5-(isopropylthio)-4-(4-(trifluoromethyl)cyclohex-1-en-1-yl)thiazol-2-yl)-3-methyl-1H-pyrazole-5-carboxylate] had a pH of solution of 8.25. The “thermodynamic stability relationship between Form 11 and Form 12” value in data set [2] (slurry of Form 11:Form 12 (1:1) in 4% dichloromethane, room temperature, 30 minutes) is given as “more thermodynamically stable than Form 12”. Besides, the “Form change by XRPD of remaining solids” value is “no form change was observed” in data set [3] (after solubility test in FaSSIF), “converted to Form 1” in data set [3] (after solubility test in FeSSIF), “converted to Form 1” in data set [3] (after solubility test in SGF) and “no form change was observed” in data set [3] (after solubility test in water). Also, the solubility at 1 h in data set [3] (fasted state simulated intestinal fluid (FaSSIF), FaSSIF, 1 hr) was 100 µg/mL; in data set [3] (fed state simulated intestinal fluid (FeSSIF), FeSSIF, 1 hr) it was 200 µg/mL; in data set [3] (simulated gastric fluid (SGF), simulated gastric fluid, SGF, 1 hr), 40 µg/mL; in data set [3] (water, H2O, 1 hr), 1400 µg/mL. In addition, the solubility at 4 h in data set [3] (fasted state simulated intestinal fluid (FaSSIF), FaSSIF, 4 hr) is 100 µg/mL; in data set [3] (fed state simulated intestinal fluid (FeSSIF), FeSSIF, 4 hr) it was 300 µg/mL; in data set [3] (simulated gastric fluid (SGF), simulated gastric fluid, SGF, 4 hr), 100 µg/mL; in data set [3] (water, H2O, 4 hr) it was 1300 µg/mL. The solubility at 24 h in data set [3] (fasted state simulated intestinal fluid (FaSSIF), FaSSIF, 24 hr) is 200 µg/mL; in data set [3] (fed state simulated intestinal fluid (FeSSIF), FeSSIF, 24 hr) it was 400 µg/mL; in data set [3] (simulated gastric fluid (SGF), simulated gastric fluid, SGF, 24 hr), 300 µg/mL; in data set [3] (water, H2O, 24 hr), 1200 µg/mL. Moreover, the pH is listed as 6.48 in data set [3] (FaSSIF, 1 hr); 6.45 in data set [3] (FaSSIF, 4 hr); 6.56 in data set [3] (FaSSIF, 24 hr); 5.19 in data set [3] (FeSSIF, 1 hr); 5.28 in data set [3] (FeSSIF, 4 hr); 5.32 in data set [3] (FeSSIF, 24 hr). Also, the pH in data set [3] (H2O, 1 hr) is 9.67; in data set [3] (H2O, 4 hr) it was 9.31; in data set [3] (H2O, 24 hr) it was 9.17; in data set [3] (SGF, 1 hr) it was 2.12; in data set [3] (SGF, 4 hr), 2.55; in data set [3] (SGF, 24 hr), 6.81. For the same compound, the “change … (XRPD)” value in data set [1] is listed as “no change to the polymorph was observed”.

As for `Cc1nn(-c2nc(C3=CCC(C(F)(F)F)CC3)c(SC(C)C)s2)c(C(=O)[O-])c1-c1cccc(F)c1.[Na+]` (centres unmarked) [Form 12, sodium 4-(3-fluorophenyl)-1-(5-(isopropylthio)-4-(4-(trifluoromethyl)cyclohex-1-en-1-yl)thiazol-2-yl)-3-methyl-1H-pyrazole-5-carboxylate], the pH of solution in data set [2] amounted to 7.98. The “change … (XRPD)” value in data set [1] is “no change to the polymorph was observed”.

For the compound `Cc1nn(-c2nc(C3=CCC(C(F)(F)F)CC3)c(SC(C)C)s2)c(C(=O)O)c1-c1cccc(F)c1.N=C(N)NCCCC(N)C(=O)O` [Form 13, L-arginine 4-(3-fluorophenyl)-1-(5-(isopropylthio)-4-(4-(trifluoromethyl)cyclohex-1-en-1-yl)thiazol-2-yl)-3-methyl-1H-pyrazole-5-carboxylate], in data set [1], the “change … (XRPD)” value is listed as “no change to the polymorph was observed”.

Take `Cc1nn(-c2nc(C3=CCC(C(F)(F)F)CC3)c(SC(C)C)s2)c(C(=O)O)c1-c1cccc(F)c1.NC(N)=O` (centres unmarked) [Form 15, urea 4-(3-fluorophenyl)-1-(5-(isopropylthio)-4-(4-(trifluoromethyl)cyclohex-1-en-1-yl)thiazol-2-yl)-3-methyl-1H-pyrazole-5-carboxylate]: in data set [1], the “change … (XRPD)” value is reported as “no change to the polymorph was observed”.

Regarding `Cc1nn(-c2nc(C3=CCC(C(F)(F)F)CC3)c(SC(C)C)s2)c(C(=O)O)c1-c1cccc(F)c1.O=C(O)C1CCCN1` [Form 16, L-proline 4-(3-fluorophenyl)-1-(5-(isopropylthio)-4-(4-(trifluoromethyl)cyclohex-1-en-1-yl)thiazol-2-yl)-3-methyl-1H-pyrazole-5-carboxylate], the “change … (XRPD)” value in data set [1] is recorded as “no change to the polymorph was observed”.

For the compound “magnesium 4-(3-fluorophenyl)-1-(5-(isopropylthio)-4-(4-(trifluoromethyl)cyclohex-1-en-1-yl)thiazol-2-yl)-3-methyl-1H-pyrazole-5-carboxylate [Form 14]”, in data set [1], the “change … (XRPD)” value is listed as “no change to the polymorph was observed”.
